Among the data in US20100317656A1, “IMIDAZO[1,2-a]PYRIDINE-2-CARBOXAMIDE DERIVATIVES, PREPARATION THEREOF AND APPLICATION THEREOF IN THERAPEUTICS” (SANOFI-AVENTIS, priority 2008, published 2010) are EC50 values, retold here.

For this test, the target named is T1, mouse Nurr1 receptor (Mus musculus, UniProt Q06219).
T1 construct: a cell line (N2A) endogenously expressing the mouse Nurr1 receptor; host or cells: Neuro-2A (N2A) mouse neuroblastoma cells stably transfected with 8NBRE-luciferase
T1 sequence (Q06219 whole entry): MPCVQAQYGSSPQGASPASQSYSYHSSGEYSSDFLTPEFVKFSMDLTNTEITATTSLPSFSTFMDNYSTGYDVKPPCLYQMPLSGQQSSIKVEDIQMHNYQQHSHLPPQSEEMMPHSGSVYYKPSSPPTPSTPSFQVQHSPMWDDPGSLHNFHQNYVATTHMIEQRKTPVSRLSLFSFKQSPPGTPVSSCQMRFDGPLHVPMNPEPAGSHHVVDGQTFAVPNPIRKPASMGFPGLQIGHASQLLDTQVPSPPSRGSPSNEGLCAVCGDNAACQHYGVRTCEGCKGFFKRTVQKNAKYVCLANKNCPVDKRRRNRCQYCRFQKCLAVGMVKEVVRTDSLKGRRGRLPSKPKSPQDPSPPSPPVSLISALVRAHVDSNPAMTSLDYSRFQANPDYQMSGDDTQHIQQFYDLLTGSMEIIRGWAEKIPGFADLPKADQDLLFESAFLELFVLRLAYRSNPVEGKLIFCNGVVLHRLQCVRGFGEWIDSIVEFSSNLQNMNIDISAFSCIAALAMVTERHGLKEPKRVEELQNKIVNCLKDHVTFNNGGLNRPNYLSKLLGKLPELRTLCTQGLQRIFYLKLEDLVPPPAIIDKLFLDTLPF
Description: Evaluation of the in vitro activity on N2A cells (NBRE-luciferase reporter). The format is cell-based. To be noted: N2A (Neuro-2A) cells endogenously expressing Nurr1, stably transfected with 8NBRE-luciferase; products incubated 24 hours; luminescence. The procedure: The activity of the compounds according to the invention was evaluated on a cell line (N2A) endogenously expressing the mouse Nurr1 receptor and stably transfected with the NOT binding response element (NBRE) coupled to the luciferase reporter gene. The EC50 values are between 0.01 and 1000 nM. The assays were carried out according to the procedure described below.
The Neuro-2A cell line comes from a standard commercial source (ATCC). The Neuro-2A clone was obtained, from a spontaneous tumour originating from an A albino mouse strain, by R. J Klebe et al. This Neuro-2A line is subsequently stably transfected with 8NBRE-luciferase. The N2A-8NBRE cells are cultured until confluence in 75 cm^2 culture flasks containing DMEM supplemented with 10% of foetal calf serum, 4.5 g/l of glucose and 0.4 mg/ml of geneticin. After a week of culture, the cells are recovered with 0.25% trypsin for 30 seconds and then resuspended in DMEM without phenol red, containing 4.5 g/l of glucose and 10% of Hyclone delipidized serum, and deposited into transparent-bottom 96-well white plates. The cells are deposited at a rate of 60 000 per well in 75 μl for 24 hours before the addition of the products. The products are applied in 25 μl and incubated for a further 24 hours. On the day of the measurement, an equivalent volume (100 μl) of Steadylite is added to each well and then left for a period of 30 minutes in order to obtain complete cell lysis and maximum signal production. The plates are subsequently measured in a luminescence counter for microplates after having been sealed with an adhesive film. The products are prepared in the form of a stock solution at 10^−2M and then diluted in 100% of DMSO. Each product concentration is prediluted in culture medium before incubation with the cells, thus containing 0.625% final concentration of DMSO.
Take `O=C(c1cn2cc(-c3ncco3)ccc2n1)N1CC=CCC1` [Compound 30, 6-(Oxazol-2-yl)-2-[(1,2,5,6-tetrahydropyridin-1-yl)carbonyl]imidazo[1,2-α]pyridine]: the half-maximal effective concentration (EC50) was determined as 56 nM. This counts as double-digit nanomolar. With `O=C(c1cn2cc(-c3cccc(CO)c3)ccc2n1)N1CC=CCC1` [Compound 8, {3-[2-[(1,2,5,6-Tetrahydropyridin-1-yl)carbonyl]imidazo[1,2-α]pyridin-6-yl]phenyl}methanol] the figure was 0.8 nM; with `O=C(c1cn2cc(-c3cccc(CO)c3)ccc2n1)N1CC=CC1` [Compound 7, {3-[2-(2,5-Dihydro-1H-pyrrol-1-ylcarbonyl)imidazo[1,2-α]pyridin-6-yl]phenyl}methanol], 5 nM.

Regarding `O=C(c1cn2cc(-c3nc[nH]n3)ccc2n1)N1CCc2ccccc21` [Compound 35, 2-(2,3-Dihydro-1H-indol-1-ylcarbonyl)-6-(1H-1,2,4-triazol-3-yl)imidazo[1,2-α]pyridine], the EC50 is 11 nM. For `O=C(c1cn2cc(-c3c[nH]cn3)ccc2n1)N1CCc2ccccc21` [Compound 43, 2-(2,3-Dihydro-1H-indol-1-ylcarbonyl)-6-(1H-imidazol-4-yl)imidazo[1,2-α]pyridine] the value was 2.4 nM. With `CN(C)c1ccc2nc(C(=O)N3CCc4ccc(F)cc43)cn2c1` [Compound 17, 2-[(6-Fluoro-2,3-dihydro-1H-indol-1-yl)carbonyl]-N,N-dimethylimidazo[1,2-α]pyridin-6-amine] the figure was 6.7 nM.
